Measured values: article PMC7778552, “A Double-Edged Sword: The Anti-Cancer Effects of Emodin by Inhibiting the Redox-Protective Protein MTH1 and Augmenting ROS in NSCLC” (Journal of Cancer, 2021)

Target: T1, MutT homolog 1 (MTH1) (Homo sapiens, UniProt P36639)
T1 construct: gene NUDT1; N-terminal His-tagged, expressed in E. coli BL21-codon plus
Test: SPR with immobilized purified MTH1 (amine coupling)
Assay type: binding

Kd: 22.2 ± 0.68 µM
Compound: Cc1cc(O)c2c(c1)C(=O)c1cc(O)cc(O)c1C2=O [emodin, 1,3,8-trihydroxy-6-methylanthraquinone]
